Test results taken from patent US10995101B2, “2-oxo-thiazole derivatives as A2A inhibitors and compounds for use in the treatment of cancers” (iTeos Therapeutics SA, priority 2017, dated 2021).

Experiments:
A2A receptor = A2A receptor (Homo sapiens, UniProt P29274); assay: Inhibition of cAMP production in HEK cells; assay type: cell-based; details: HEK-293 cells with A2A receptor
Protocol: When the A2A receptor is activated, is induces the production of cAMP.
HEK-293 cells with a stable transfection of A2A receptor were bought from PerkinElmer® (# ES-011-C). […] Fresh media without the selection marker was added on the day immediately before the experiment to stop selection pressure.
Stimulation buffer b) mimics the human situation by increasing the amount of albumin present in the assay.
Compounds of the present invention were diluted 100× in either of the buffers depending on the assay performed. […] The total volume of the reaction was 20 μl (10 μl of cells, 5 μl of antagonist and 5 μl of agonist). The reaction was finalized by adding 10 μl of 4× EU-cAMP tracer working solution and 10 μl of 4× ULight-anti-cAMP working solution. The TR-FRET signal was measured after 1 hour using a Spectramax Paradigm (Molecular Devices).

in vitro = details: human, Caco-2, pH 7.4
[1] = IC50 (nM) (3 nM NECA as agonist, 0.1% BSA), 3 nM NECA as agonist, 0.1% BSA
[2] = IC50 (nM) (5 nM NECA as agonist, 2% HSA), 5 nM NECA as agonist, 2% HSA
[3] = IC50 (nM) (5 μM Adenosine as agonist, 2.0% HSA), 5 μM Adenosine as agonist, 2.0% HSA

A2A receptor, sequence (P29274 whole entry): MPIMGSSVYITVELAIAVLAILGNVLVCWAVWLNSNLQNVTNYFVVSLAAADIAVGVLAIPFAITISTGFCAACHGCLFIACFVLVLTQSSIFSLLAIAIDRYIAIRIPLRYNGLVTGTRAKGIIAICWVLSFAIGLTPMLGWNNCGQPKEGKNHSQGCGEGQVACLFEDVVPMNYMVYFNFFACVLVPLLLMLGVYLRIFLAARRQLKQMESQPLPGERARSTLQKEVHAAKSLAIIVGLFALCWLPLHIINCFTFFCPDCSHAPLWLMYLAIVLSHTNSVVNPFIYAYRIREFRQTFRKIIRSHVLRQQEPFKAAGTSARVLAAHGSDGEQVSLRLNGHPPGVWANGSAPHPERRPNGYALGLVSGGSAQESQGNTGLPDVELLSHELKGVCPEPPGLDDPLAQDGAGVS

| SMILES | IC50 (A2A receptor; [1]) [nM] | IC50 (A2A receptor; [2]) [nM] | IC50 (A2A receptor; [3]) [nM] | efflux ratio at 120 min, 2 μM (in vitro) |
| --- | --- | --- | --- | --- |
| Nc1nc2c(sc(=O)n2CCN2CCN(c3ccc(OCC4CCNCC4)cc3F)CC2)c2nc(-c3ccco3)nn12 [Compound 25, 5-amino-3-(2-(4-(2-fluoro-4-(piperidin-4-ylmethoxy)phenyl)piperazin-1-yl)ethyl)-8-(furan-2-yl)thiazolo[5,4-e][1,2,4]triazolo[1,5-c]pyrimidin-2(3H)-one] | 1.2 | 6 | 300 | 472 |
| Nc1nc2c(sc(=O)n2CCN2CCN(c3ccc(OCCN4CCNCC4)cc3F)CC2)c2nc(-c3ccco3)nn12 [Compound 27, 5-amino-3-(2-(4-(2-fluoro-4-(2-(piperazin-1-yl)ethoxy)phenyl)piperazin-1-yl)ethyl)-8-(furan-2-yl)thiazolo[5,4-e][1,2,4]triazolo[1,5-c]pyrimidin-2(3H)-one] | 0.3 | 2 | 112 | 187 |
| NCCNC(=O)c1ccc(N2CCN(CCn3c(=O)sc4c3nc(N)n3nc(-c5ccco5)nc43)CC2)c(F)c1 [Compound 30, 4-(4-(2-(5-amino-8-(furan-2-yl)-2-oxothiazolo[5,4-e][1,2,4]triazolo[1,5-c]pyrimidin-3(2H)-yl)ethyl)piperazin-1-yl)-N-(2-aminoethyl)-3-fluorobenzamide] | 0.4 | 1 | 42 | 3 |
| Nc1nc2c(sc(=O)n2CCN2CCN(c3ccc(C(=O)NCC(O)CO)cc3F)CC2)c2nc(-c3ccco3)nn12 (centres unmarked) [Compound 34, 4-(4-(2-(5-amino-8-(furan-2-yl)-2-oxothiazolo[5,4-e][1,2,4]triazolo[1,5-c]pyrimidin-3(2H)-yl)ethyl)piperazin-1-yl)-N-(2,3-dihydroxypropyl)-3-fluorobenzamide] | 0.3 | 6 | 207 | 192 |
| Nc1nc2c(sc(=O)n2CCN2CCN(c3ccc(CCC(=O)O)cc3F)CC2)c2nc(-c3ccco3)nn12 [Compound 40, 3-(4-(4-(2-(5-amino-8-(furan-2-yl)-2-oxothiazolo[5,4-e][1,2,4]triazolo[1,5-c]pyrimidin-3(2H)-yl)ethyl)piperazin-1-yl)-3-fluorophenyl)propanoic acid] | 0.7 | 7 | 261 | 25 |
| NC(=O)CNCCOc1ccc(N2CCN(CCn3c(=O)sc4c3nc(N)n3nc(-c5ccco5)nc43)CC2)c(F)c1 [Compound 45, 2-((2-(4-(4-(2-(5-amino-8-(furan-2-yl)-2-oxothiazolo[5,4-e][1,2,4]triazolo[1,5-c]pyrimidin-3(2H)-yl)ethyl)piperazin-1-yl)-3-fluorophenoxy)ethyl)amino)acetamide] | 0.8 | 3 | 100 | 41 |
| Nc1nc2c(sc(=O)n2CCN2CCN(c3ccc(OC4CCNCC4)cc3F)CC2)c2nc(-c3ccco3)nn12 [Compound 47, 5-amino-3-(2-(4-(2-fluoro-4-(piperidin-4-yloxy)phenyl)piperazin-1-yl)ethyl)-8-(furan-2-yl)thiazolo[5,4-e][1,2,4]triazolo[1,5-c]pyrimidin-2(3H)-one] | 1.8 | 1 | 43 | 329 |
| Nc1nc2c(sc(=O)n2CCN2CCN(c3ccc(OC4CCNC4)cc3F)CC2)c2nc(-c3ccco3)nn12 (centres unmarked) [Compound 48, 5-amino-3-(2-(4-(2-fluoro-4-(pyrrolidin-3-yloxy)phenyl)piperazin-1-yl)ethyl)-8-(furan-2-yl)thiazolo[5,4-e][1,2,4]triazolo[1,5-c]pyrimidin-2(3H)-one] | 0.1 |  | 9 | 166 |
| CN(C)CCNC(=O)COc1ccc(N2CCN(CCn3c(=O)sc4c3nc(N)n3nc(-c5ccco5)nc43)CC2)c(F)c1 [Compound 51, 2-(4-(4-(2-(5-amino-8-(furan-2-yl)-2-oxothiazolo[5,4-e][1,2,4]triazolo[1,5-c]pyrimidin-3(2H)-yl)ethyl)piperazin-1-yl)-3-fluorophenoxy)-N-(2-(dimethylamino)ethyl)acetamide] | 0.3 |  | 16 | 469 |
| NCCNC(=O)COc1ccc(N2CCN(CCn3c(=O)sc4c3nc(N)n3nc(-c5ccco5)nc43)CC2)c(F)c1 [Compound 52, 2-(4-(4-(2-(5-amino-8-(furan-2-yl)-2-oxothiazolo[5,4-e][1,2,4]triazolo[1,5-c]pyrimidin-3(2H)-yl)ethyl)piperazin-1-yl)-3-fluorophenoxy)-N-(2-aminoethyl)acetamide] | 0.3 | 1 | 26 | 34 |
| NC(=O)COc1ccc(N2CCN(CCn3c(=O)sc4c3nc(N)n3nc(-c5ccco5)nc43)CC2)c(F)c1 [Compound 54, 2-(4-(4-(2-(5-amino-8-(furan-2-yl)-2-oxothiazolo[5,4-e][1,2,4]triazolo[1,5-c]pyrimidin-3(2H)-yl)ethyl)piperazin-1-yl)-3-fluorophenoxy)acetamide] | 0.8 | 3 | 138 | 24 |
| CNCCN(C)C(=O)c1ccc(N2CCN(CCn3c(=O)sc4c3nc(N)n3nc(-c5ccco5)nc43)CC2)c(F)c1 [Compound 55, 4-(4-(2-(5-amino-8-(furan-2-yl)-2-oxothiazolo[5,4-e][1,2,4]triazolo[1,5-c]pyrimidin-3(2H)-yl)ethyl)piperazin-1-yl)-3-fluoro-N-methyl-N-(2-(methylamino)ethyl)benzamide] | 1 | 2 | 141 | 205 |
| CN(C)CCN(C)C(=O)c1ccc(N2CCN(CCn3c(=O)sc4c3nc(N)n3nc(-c5ccco5)nc43)CC2)c(F)c1 [Compound 56, 4-(4-(2-(5-amino-8-(furan-2-yl)-2-oxothiazolo[5,4-e][1,2,4]triazolo[1,5-c]pyrimidin-3(2H)-yl)ethyl)piperazin-1-yl)-N-(2-(dimethylamino)ethyl)-3-fluoro-N-methylbenzamide] | 0.2 | 1 | 25 | 1750 |
| C[C@H](CN(C)C)NC(=O)c1ccc(N2CCN(CCn3c(=O)sc4c3nc(N)n3nc(-c5ccco5)nc43)CC2)c(F)c1 [Compound 57, (R)-4-(4-(2-(5-amino-8-(furan-2-yl)-2-oxothiazolo[5,4-e][1,2,4]triazolo[1,5-c]pyrimidin-3(2H)-yl)ethyl)piperazin-1-yl)-N-(1-(dimethylamino)propan-2-yl)-3-fluorobenzamide] | 0.2 | 2 | 56 | 2200 |
| CNCCNC(=O)COc1cc(N2CCN(CCn3c(=O)sc4c3nc(N)n3nc(-c5ccco5)nc43)CC2)c(F)cc1F [Compound 62, 2-(5-(4-(2-(5-amino-8-(furan-2-yl)-2-oxothiazolo[5,4-e][1,2,4]triazolo[1,5-c]pyrimidin-3(2H)-yl)ethyl)piperazin-1-yl)-2,4-difluorophenoxy)-N-(2-(methylamino)ethyl)acetamide] | 0.5 | 1 | 21 | 23 |
| CN(C)CCNC(=O)COc1cc(N2CCN(CCn3c(=O)sc4c3nc(N)n3nc(-c5ccco5)nc43)CC2)c(F)cc1F [Compound 63, 2-(5-(4-(2-(5-amino-8-(furan-2-yl)-2-oxothiazolo[5,4-e][1,2,4]triazolo[1,5-c]pyrimidin-3(2H)-yl)ethyl)piperazin-1-yl)-2,4-difluorophenoxy)-N-(2-(dimethylamino)ethyl)acetamide] | 0.3 | 1 | 12 | 264 |
| CN(C)CCN(C)C(=O)c1cc(N2CCN(CCn3c(=O)sc4c3nc(N)n3nc(-c5ccco5)nc43)CC2)c(F)cc1F [Compound 64, 5-(4-(2-(5-amino-8-(furan-2-yl)-2-oxothiazolo[5,4-e][1,2,4]triazolo[1,5-c]pyrimidin-3(2H)-yl)ethyl)piperazin-1-yl)-N-(2-(dimethylamino)ethyl)-2,4-difluoro-N-methylbenzamide] | 0.6 | 1 | 36 | 60 |
| Nc1nc2c(sc(=O)n2CCN2CCN(c3cc(OCc4nnn[nH]4)c(F)cc3F)CC2)c2nc(-c3ccco3)nn12 [Compound 66, 3-(2-(4-(5-((1H-tetrazol-5-yl)methoxy)-2,4-difluorophenyl)piperazin-1-yl)ethyl)-5-amino-8-(furan-2-yl)thiazolo[5,4-e][1,2,4]triazolo[1,5-c]pyrimidin-2(3H)-one] | 0.8 | 13 | 543 | 1010 |
| Cn1cnc(COc2ccc(N3CCN(CCn4c(=O)sc5c4nc(N)n4nc(-c6ccco6)nc54)CC3)c(F)c2)n1 [Compound 67, 5-amino-3-(2-(4-(2-fluoro-4-((1-methyl-1H-1,2,4-triazol-3-yl)methoxy)phenyl)piperazin-1-yl)ethyl)-8-(furan-2-yl)thiazolo[5,4-e][1,2,4]triazolo[1,5-c]pyrimidin-2(3H)-one] | 0.6 | 9 | 378 | 15 |
